The target of the assay is canine TRPM8 (Canis lupus familiaris, UniProt Q1A7N1). As to the kind of experiment: In Vitro Canine TRPM8 Functional Assay (intracellular Ca2+ fluorescence, icilin challenge). The assay is classed as cell-based. The conditions noted are these: for IC50: icilin at ~80% maximal response. The procedure: The functional activity of compounds of the formula (I) was determined by measuring changes in intracellular calcium concentration using a Ca^2+-sensitive fluorescent dye. The changes in fluorescent signal were monitored by a fluorescence plate reader, either a FLIPR™ (Molecular Devices) or FDSS (Hamamatsu).
At 24 hrs prior to assay, HEK293 cells stably expressing canine TRPM8 were seeded in culture medium in black wall, clear-base poly-D-lysine coated 384-well plates (BD Biosciences, NJ, USA) and grown overnight in 5% CO2 at 37° C. On assay day, growth media was removed and cells were loaded with Calcium 3 Dye (Molecular Devices) for 35 min at 37° C., under 5% CO2 and then for 25 min at room temperature and atmosphere. Subsequently, cells were tested for agonist-induced increases in intracellular Ca^2+ levels using FLIPR™ or FDSS. Cells were challenged with a compound of the Formula (I) (at varying concentrations) and intracellular Ca^2+ was measured for 5 min prior to the addition of icilin to all wells to achieve a final concentration that produces approximately an 80% maximal response. EC50 or IC50 values for compounds of the present invention were determined from eight-point dose-response studies. Curves were generated using the average of quadruplicate wells for each data point.

Where [1] appears, read: HEK293 cells stably expressing canine TRPM8.
Where [2] appears, read: HEK293, @ 0.2 μM, HEK293 cells stably expressing canine TRPM8, read-out: % Inh (%) @ 0.2 μM.
Where [3] appears, read: HEK293, read-out: % Inh (%) @ 0.2 μM.

Where two headings read alike, the source gives them in different places.

Sequence of canine TRPM8 (Q1A7N1 1-1104): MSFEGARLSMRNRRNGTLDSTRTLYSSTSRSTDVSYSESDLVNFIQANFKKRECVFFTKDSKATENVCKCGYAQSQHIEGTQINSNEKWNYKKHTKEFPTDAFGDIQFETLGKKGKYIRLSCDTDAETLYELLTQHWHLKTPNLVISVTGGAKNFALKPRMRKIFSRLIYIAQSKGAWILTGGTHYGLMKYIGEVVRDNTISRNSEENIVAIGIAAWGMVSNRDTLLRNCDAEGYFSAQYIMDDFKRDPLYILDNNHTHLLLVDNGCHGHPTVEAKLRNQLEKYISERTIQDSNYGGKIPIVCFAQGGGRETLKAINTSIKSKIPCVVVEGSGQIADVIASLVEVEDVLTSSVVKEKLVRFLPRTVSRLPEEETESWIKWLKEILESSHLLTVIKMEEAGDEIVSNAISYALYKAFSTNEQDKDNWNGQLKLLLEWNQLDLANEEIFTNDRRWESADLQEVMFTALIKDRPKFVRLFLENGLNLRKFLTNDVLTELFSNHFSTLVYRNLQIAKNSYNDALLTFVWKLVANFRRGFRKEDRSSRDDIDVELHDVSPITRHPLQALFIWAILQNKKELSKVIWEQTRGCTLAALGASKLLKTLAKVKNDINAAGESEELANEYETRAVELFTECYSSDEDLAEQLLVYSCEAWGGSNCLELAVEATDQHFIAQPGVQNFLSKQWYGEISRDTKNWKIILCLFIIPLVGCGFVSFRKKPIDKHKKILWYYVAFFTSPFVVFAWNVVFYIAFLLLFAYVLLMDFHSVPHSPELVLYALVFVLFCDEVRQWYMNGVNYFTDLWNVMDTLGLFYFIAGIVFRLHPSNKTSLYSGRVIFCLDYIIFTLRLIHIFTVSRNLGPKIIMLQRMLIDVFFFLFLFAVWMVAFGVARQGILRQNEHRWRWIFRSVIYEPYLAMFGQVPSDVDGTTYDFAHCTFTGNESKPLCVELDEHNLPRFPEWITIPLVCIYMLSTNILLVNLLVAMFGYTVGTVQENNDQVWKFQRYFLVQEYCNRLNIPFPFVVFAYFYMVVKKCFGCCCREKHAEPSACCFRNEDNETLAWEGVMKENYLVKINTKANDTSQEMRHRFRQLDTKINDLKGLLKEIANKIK

`Cc1cccn2c(C)c(N(Cc3ccc(OC(F)(F)F)cc3)S(=O)(=O)c3ccc(C(=O)[O-])cc3)nc12.[Na+]` [Compound 117]: the “% Inh (%) @ 0.2 μM” value (@ 0.2 μM, HEK293 cells stably expressing canine TRPM8) stood at 101%. The IC50 under setting [1] came out at 13.5 nM.
For `Cc1cccn2c(C)c(N(Cc3cccc(C(F)(F)F)c3)S(=O)(=O)c3ccccc3)nc12` [Compound 34], the inhibition at 0.2 µM under setting [2] was determined as 100%. The molecule further registered an IC50 under setting [1] of 9.83 nM.
Consider `O=S(=O)(c1ccccc1)N(Cc1ccc(F)c(C(F)(F)F)c1)c1cn2ccccc2n1` [Compound 13], for which, under setting [1], it took 48.9 nM to reach half-maximal inhibition (IC50).
Take `CCc1c(N(Cc2ccc(C(F)(F)F)c(F)c2)S(=O)(=O)c2ccc(N3CCOCC3)nc2)nc2ccc(Cl)cn12` [Compound 87]: the inhibition at 0.2 µM under setting [2] was found to be 86%. Further, the IC50 under setting [1] came out at 86.3 nM.
The like results for `CCc1c(N(Cc2ccc(C(F)(F)F)c(F)c2)S(=O)(=O)c2ccccc2)nc2cccc(C)n12` [Compound 80] were, in that order, 99% and 12.1 nM.
Taken in the same sequence, the figures for `Cc1ccc2nc(N(Cc3ccc(F)c(C(F)(F)F)c3)S(=O)(=O)c3ccccc3)c(C)n2c1` [Compound 40] were 100% and 22.2 nM.
In the case of `O=S(=O)(c1ccccc1)N(Cc1ccc(OC(F)(F)F)cc1)c1nc2ccccn2c1Cl` [Compound 3], inhibition under setting [1] was half-maximal at 1.8 nM (IC50).
Still for that read-out and setting: under `O=S(=O)(c1ccccc1)N(Cc1ccc(OC(F)(F)F)cc1)c1nc2ccccn2c1Br` [Compound 5] stands 5.3 nM.
For the molecule `O=S(=O)(c1ccc(N2CCOCC2)nc1)N(Cc1ccc(OC(F)(F)F)cc1)c1nc2ccccn2c1Br` [Compound 84], the inhibition at 0.2 µM under setting [2] was 100%. In addition, inhibition under setting [1] was half-maximal at 11.5 nM (IC50).
The like results for `CCc1c(N(Cc2ccc(C(F)(F)F)c(F)c2)S(=O)(=O)c2ccccc2)nc2c(C(F)(F)F)cccn12` [Compound 56] were, in that order, 99% and 65 nM.
Under setting [1], `Cc1c(N(Cc2ccc(F)c(C(F)(F)F)c2)S(=O)(=O)c2ccccc2)nc2cc(Cl)ccn12` [Compound 15] registered a half-inhibitory concentration (IC50) of 16 nM.
Consider `Cc1c(N(Cc2ccc(OC(F)(F)F)cc2)S(=O)(=O)c2ccc(C(=O)O)cc2)nc2ccc(F)cn12` [Compound 120, Sodium 4-(N-(6-fluoro-3-methylimidazo[1,2-a]pyridin-2-yl)-N-(4-(trifluoromethoxy)benzyl)sulfamoyl)benzoate], for which the inhibition at 0.2 µM under setting [3] was 102%. The same molecule yielded an IC50 under setting [1] of 12.2 nM.
Molecule `Cc1c(N(Cc2ccc(OC(F)(F)F)cc2)S(=O)(=O)CCN(CC(C)C)CC(C)C)nc2cc(C(F)(F)F)ccn12` [Compound 106, N-(4-Trifluoromethoxybenzyl)-N-(7-trifluoromethyl-3-methylimidazo[1,2-a]pyridin-2-yl)-2-(N,N-diisobutylamino)ethylsulfonamide] yielded a half-maximal effective concentration (EC50) under setting [1] of 93 nM.
For the molecule `CC(C)c1c(N(Cc2ccc(F)c(C(F)(F)F)c2)S(=O)(=O)c2ccccc2)nc2ccccn12` [Compound 50], the inhibition at 0.2 µM under setting [2] is 101%. Under setting [1], this molecule gave a half-inhibitory concentration (IC50) of 12.3 nM.
Taken in the same sequence, the figures for `Cc1cccc2nc(N(Cc3ccc(C(F)(F)F)c(F)c3)S(=O)(=O)c3ccccc3)c(C)n12` [Compound 49] were 99% and 13.3 nM.
`O=S(=O)(c1ccccc1)N(Cc1ccc(F)cc1)c1nc2ccc(Cl)cn2c1Cl` [Compound 16]: inhibition under setting [1] was half-maximal at 72 nM (IC50).
In the case of `O=S(=O)(c1ccc(N2CCOCC2)nc1)N(Cc1ccc(F)c(C(F)(F)F)c1)c1nc2ccccn2c1Cl` [Compound 90, N-(3-Chloroimidazo[1,2-a]pyridin-2-yl)-N-(4-fluoro-3-trifluoromethylbenzyl)-6-morpholin-4-yl-pyridine-3-sulfonamide], the inhibition at 0.2 µM under setting [2] was found to be 99%. This molecule also returned an IC50 under setting [1] of 26.9 nM.
Taken in the same sequence, the figures for `CC(C)c1c(N(Cc2ccc(OC(F)(F)F)cc2)S(=O)(=O)c2ccccc2)nc2ccccn12` [Compound 52] were 101% and 9.43 nM.
The like results for `Cc1cccn2c(C)c(N(Cc3ccc(F)c(C(F)(F)F)c3)S(C)(=O)=O)nc12` [Compound 35] were, in that order, 74% and 44.9 nM.
Taken in the same sequence, the figures for `CC(C)c1c(N(Cc2cccc(C(F)(F)F)c2)S(=O)(=O)c2ccccc2)nc2ccccn12` [Compound 54] were 101% and 7.92 nM.
Under setting [1], `Cc1c(N(Cc2ccc(OC(F)(F)F)cc2)S(=O)(=O)c2ccccc2)nc2cc(Cl)ccn12` [Compound 14] returned an IC50 of 20.7 nM.
On to `Cc1c(N(Cc2ccc(F)c(C(F)(F)F)c2)S(=O)(=O)c2ccc(C(=O)O)cc2)nc2ccc(Cl)cn12` [Compound 115], for which the inhibition at 0.2 µM under setting [3] was 96%.
With `CCc1c(N(Cc2ccc(C(F)(F)F)c(F)c2)S(=O)(=O)c2ccc(-n3cccn3)cc2)nc2ccc(Cl)cn12` [Compound 88], the inhibition at 0.2 µM under setting [2] turned out to be 100%. In addition, under setting [1], the 50% inhibitory concentration (IC50) is 41.4 nM.
On to `CC(C)c1c(N(Cc2ccc(C(F)(F)F)c(F)c2)S(=O)(=O)c2ccccc2)nc2ccccn12` [Compound 51], for which the inhibition at 0.2 µM under setting [2] came to 101%. Also, it took 6.56 nM to reach half-maximal inhibition under setting [1] (IC50).
Under setting [1], `O=S(=O)(c1ccccc1)N(Cc1ccc(OC(F)(F)F)cc1)c1cn2ccccc2n1` [Compound 12] yielded an IC50 of 48.7 nM.
Regarding `Cc1c(N(Cc2ccc(C(F)(F)F)cc2)S(=O)(=O)c2ccccc2)nc2ccc(Cl)cn12` [Compound 43], the inhibition at 0.2 µM under setting [2] stood at 99%. Also, under setting [1], the IC50 is 24.3 nM.
Take `CCc1c(N(Cc2ccc(F)c(C(F)(F)F)c2)S(=O)(=O)c2ccccc2)nc2c(C(F)(F)F)cccn12` [Compound 55, N-(3-Ethyl-8-trifluoromethylimidazo[1,2-a]pyridin-2-yl)-N-(4-fluoro-3-trifluoromethylbenzyl)benzenesulfonamide]: under setting [2], the inhibition at 0.2 µM is 94%. Under setting [1], this molecule gave a concentration for half-maximal inhibition (IC50) of 33.4 nM.
Turning to `CS(=O)(=O)N(Cc1ccc(OC(F)(F)F)cc1)c1nc2ccccn2c1Br` [Compound 4], half-maximal inhibition under setting [1] (IC50) required 16.7 nM.
The same measure, in the same setting: under `Cc1c(N(Cc2ccc(OC(F)(F)F)cc2)S(=O)(=O)c2ccccc2)nc2ccccn12` [Compound 11] stands 5.68 nM.
`Cc1cccn2c(C)c(N(Cc3ccc(C(F)(F)F)c(F)c3)S(=O)(=O)c3ccccc3)nc12` [Compound 32]: under setting [2], the inhibition at 0.2 µM turned out to be 100%. For the same molecule, under setting [1], the IC50 turned out to be 12.5 nM.
Taken in the same sequence, the figures for `Cc1cccn2c(C)c(N(Cc3ccc(F)c(C(F)(F)F)c3)S(=O)(=O)c3ccccc3)nc12` [Compound 31] were 101% and 10.3 nM.
Taken in the same sequence, the figures for `O=S(=O)(c1ccc(N2CCOCC2)nc1)N(Cc1ccc(F)c(C(F)(F)F)c1)c1nc2ccccn2c1Br` [Compound 86] were 99% and 10.7 nM.
Taken in the same sequence, the figures for `Cc1cccc2nc(N(Cc3ccc(F)c(C(F)(F)F)c3)S(=O)(=O)c3ccccc3)c(C)n12` [Compound 48] were 99% and 11 nM.
`O=S(=O)(c1ccccc1)N(Cc1ccc(C(F)(F)F)c(F)c1)c1nc2ccccn2c1Br` [Compound 25] had a half-maximal inhibitory concentration (IC50) under setting [1] of 3.49 nM.
Turning to `O=S(=O)(c1ccc(-n2cccn2)cc1)N(Cc1ccc(OC(F)(F)F)cc1)c1nc2ccccn2c1Br` [Compound 77], the inhibition at 0.2 µM under setting [2] was found to be 100%. Also, the midpoint of inhibition under setting [1], the IC50, lay at 2.27 nM.
The like results for `COC(=O)c1ccc(S(=O)(=O)N(Cc2ccc(OC(F)(F)F)cc2)c2nc3ccc(F)cn3c2C)cc1` [Compound 118, Methyl 4-(N-(6-fluoro-3-methylimidazo[1,2-a]pyridin-2-yl)-N-(4-(trifluoromethoxy)benzyl)sulfamoyl)benzoate] were, in that order, 100% and 18 nM.
